# Measured values as given in patent US20260053778A1, “USE OF NOVEL PPAR ACTIVITY MODULATOR FOR PREVENTION, AMELIORATION OR TREATMENT OF DEGENERATIVE BRAIN DISEASES” (POSTECH RESEARCH AND BUSINESS DEVELOPMENT FOUNDATION, priority 2022, published 2026).
# How the values were obtained:
# [1] = system: 5×FAD Alzheimer's dementia-induced mice; assay: Y maze test in 5×FAD mice; format: in vivo, mouse; settings: DTMB 10 mg/kg orally, 12 weeks
# Experimental: 5×FAD (Tg6799) mice were purchased from Jackson Laboratory (Bar Harbor, ME, USA), and male transgenic mice were mated with B6/SJL hybrid female mice. Genotyping was performed by PCR analysis of tail-cut samples. In this example, 8-week-old female mice were used for drug administration, and wild-type littermates were used as controls. All procedures related to animal behavior experiments were approved by the Institutional Animal Care and Use Committee of Pohang University of Science and Technology (POSTECH IACUC). All animal experiments were performed in accordance with the principles of the Animal Welfare Act, the PHS Animal Welfare Policy, and the NIH Guide for the Care and Use of Laboratory Animals. All mice were maintained under general conditions in the POSTECH animal facility according to institutional guidelines.
# To evaluate the effect of DTMB on 5×FAD mice, DTMB (10 mg/kg) and vehicle (1% carboxymethylcellulose and 10% DMSO) were orally administered to four groups (wild type, wild type+DTMB, 5×FAD, and 5×FAD+DTMB) 6 days per week for 3 months.
# The measuring device consists of three branches, each of which is 42 cm long, 3 cm wide, and 12 cm high, and the angle at which the three branches folded is 120°. […] Alternation behavior is defined as entering all three branches without overlapping and was calculated using the following mathematical formula.
# RAW 264.7 macrophages = assay: NO production inhibition (Griess assay) in LPS-treated macrophages; format: cell-based; settings: LPS-induced
# Experimental: Previous studies have reported that all three subtypes of PPAR inhibit inflammatory responses through inhibition of the activity and quantitative changes of the NF-κB transcription factor, a major regulator of inflammatory responses.
# First, RAW 264.7 macrophages were cultured in a humidified atmosphere of 37° C. in a 5% CO2 incubator with DMEM containing 10% FBS and 1% penicillin/streptomycin. After inducing an inflammatory response in RAW 264.7 macrophages by LPS treatment, the Griess assay (Promega) was performed according to the manufacturer's instructions to measure the concentration of nitrite.
# 5×FAD mice = assay: Aβ monomer Western blot and filter trap assay of brain lysates; format: in vivo, mouse; settings: brain tissue lysates, 6e10 Western blot
# Experimental: To investigate the soluble and insoluble Aβ components, two extraction steps were performed. Left hemisphere samples were homogenized at a concentration of 100 mg/mL in cold Tris-buffered saline (TBS consisting of 50 mM Tris-pH 7.5 and 150 mM NaCl) with a protease inhibitor cocktail (Thermo Fisher Scientific, Waltham, MO, USA). After centrifugation at 15,000 rpm for 1 hour at 4° C., the supernatant of the sample was used for western blotting. Insoluble proteins were extracted from the pellet by dissolving in 5 M guanidine buffer (5 M guanidine HCl and 150 mM NaCl-pH 7.5). Soluble and insoluble protein samples were stored at −80° C.
# The insoluble fraction of the protein lysate from 5×FAD mice was diluted in 1% SDS-PBS and boiled at 95° C. for 5 min. The membrane was pre-equilibrated with 1×TBS. A dot blotter apparatus (Bio-Rad Laboratories, Hercules, CA, USA) was used for sample application, and the 6e10 antibody was used to detect the Aβ content in the brain lysate from 5×FAD mice treated with DTMB. The sample size was 3 mice per group.
# PPARβ/δ = biological target: T1, PPARβ/δ (Homo sapiens, UniProt Q03181); assay: GAL4-transactivation assay in HEK293A cells, PPARβ/δ; format: cell-based; settings: GAL4 reporter, 24 h, compared with GW501516
# T1 construct: expressed in transfected cells; host or cells: HEK293A
# T1 sequence (Q03181 1-441): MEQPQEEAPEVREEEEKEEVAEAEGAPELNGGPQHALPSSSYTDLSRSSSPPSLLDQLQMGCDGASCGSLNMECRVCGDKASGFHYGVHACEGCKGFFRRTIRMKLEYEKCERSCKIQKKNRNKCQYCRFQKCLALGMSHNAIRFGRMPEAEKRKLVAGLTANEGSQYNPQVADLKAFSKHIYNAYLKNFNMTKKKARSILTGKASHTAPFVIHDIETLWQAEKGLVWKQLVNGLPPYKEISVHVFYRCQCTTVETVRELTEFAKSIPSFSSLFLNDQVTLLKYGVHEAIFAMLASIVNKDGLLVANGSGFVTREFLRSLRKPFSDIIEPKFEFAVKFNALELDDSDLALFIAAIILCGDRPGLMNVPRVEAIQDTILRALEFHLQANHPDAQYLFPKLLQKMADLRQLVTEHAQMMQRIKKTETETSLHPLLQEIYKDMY
# Experimental: A GAL4-transactivation assay experiment was performed to determine whether the drug was bound to the PPAR ligand binding site. HEK293A cells were transfected with GAL4-reporter plasmid and pGL4.74 (Promega, Madison, WI, USA) as an internal standard via electroporation using the Neon Transfection System (Invitrogen, Carlsbad, CA, USA). All vectors were kindly provided by Professor Kanno Yuichiro, Toho University, Japan. After overnight culture, cells were treated with DTMB and each positive control compound for 24 h. Cells were then harvested, resuspended in luciferase lysis buffer (Promega), and incubated on ice for 10 min. Cell debris was removed by centrifugation at 20,000×g, 4° C. for 10 min, and the supernatant was used for the luciferase assay. Luciferase activity was measured using the Dual Luciferase Reporter Assay System (Promega) according to the manufacturer's instructions. In the measurement experiment, firefly luciferase activity was normalized to Renilla luciferase activity. To investigate the concentration-dependent effect of DTMB drug, EC50 values were measured by treating various concentrations of DTMB.
smiles,measurement,setting,value
"COc1ccc(-c2cc(=O)oc3c(C)c(OC(=O)[C@H](Cc4c[nH]c5ccccc45)NC(=O)OC(C)(C)C)ccc23)cc1 [DTMB, [4-(4-Methoxyphenyl)-8-methyl-2-oxochromen-7-yl](2S)-3-(1H-indol-3-yl)-2-[(2-methylpropan-2-yl)oxycarbonylamino]propanoate]",Alternation behavior (Y maze),[1],increased statistically significantly
same,NO production inhibition compared with PPAR modulators,RAW 264.7 macrophages; at the same concentration,"more effectively than WY14643, a PPARα modulator, and rosiglitazone, a PPARγ modulator"
same,IC50,"RAW 264.7 macrophages; Mus musculus, RAW264.7, Griess reagent",1.23 µM
same,Amyloid β monomers,5×FAD mice,not reduced
same,PPARβ/δ activation versus positive control,PPARβ/δ,"activated at a slightly higher concentration than GW501516 and rosiglitazone, respectively"
